Laboratory results: patent US9204653B2, “5-fluoro pyrimidine derivatives” (DOW AGROSCIENCES LLC, priority 2008, dated 2015)
Read-outs that look alike come from different tables or passages of the source.

System: Mycosphaerella graminicola; Anamorph: Septoria tritici; Bayer Code SEPTTR
Experiment: Leaf blotch of wheat, foliar fungicide treatment, one day protectant (1DP) or three day curative (3DC)
Type: in vivo, Septoria tritici on wheat plants (variety Yuma)
Settings: Zymoseptoria tritici, rating of percent disease control
[1] = 24 h, one day protectant (1DP), read-out: SETTTR 1DP 25 ppm
[2] = 24 h, one day protectant (1DP), read-out: SEPTTR 1DP 100 ppm
[3] = 72 h, three day curative (3DC), read-out: SEPTTR 3DC 25 ppm
[4] = 72 h, three day curative (3DC), read-out: SEPTTR 3DC 100 ppm

NNc1nc(OCc2ccccc2)ncc1F [Compound 258]
pest or weed control at 25 ppm [1]: 51 to 75% | pest or weed control at 100 ppm [2]: 76 to 100% | pest or weed control at 25 ppm [3]: 26 to 50% | pest or weed control at 100 ppm [4]: 51 to 75%

CC(=O)OCNc1nc(OCc2ccc(F)cc2)ncc1F [Compound 259]
pest or weed control at 25 ppm [1]: 51 to 75% | pest or weed control at 100 ppm [2]: 76 to 100% | pest or weed control at 25 ppm [3]: 76 to 100% | pest or weed control at 100 ppm [4]: 76 to 100%

CN1CCCC/C1=N\c1nc(OCc2cccc(C#N)c2)ncc1F [Compound 261]
pest or weed control at 25 ppm [1]: 51 to 75% | pest or weed control at 100 ppm [2]: 76 to 100% | pest or weed control at 25 ppm [3]: 51 to 75% | pest or weed control at 100 ppm [4]: 76 to 100%

O=C(Nc1nc(OCc2ccc(F)cc2)ncc1F)OCCl [Compound 262]
pest or weed control at 25 ppm [1]: 51 to 75% | pest or weed control at 100 ppm [2]: 76 to 100% | pest or weed control at 25 ppm [3]: 76 to 100% | pest or weed control at 100 ppm [4]: 76 to 100%

COc1ccc(S(=O)(=O)Oc2ncc(F)c(/N=C/N(C)C)n2)cc1 [Compound 264]
pest or weed control at 25 ppm [1]: 51 to 75% | pest or weed control at 100 ppm [2]: 76 to 100% | pest or weed control at 25 ppm [3]: 76 to 100% | pest or weed control at 100 ppm [4]: 76 to 100%

Fc1cccc(COc2ncc(F)c(NC(=S)Nc3ccccc3F)n2)c1 [Compound 266]
pest or weed control at 25 ppm [1]: 76 to 100% | pest or weed control at 100 ppm [2]: 76 to 100% | pest or weed control at 25 ppm [3]: 0 to 25% | pest or weed control at 100 ppm [4]: 76 to 100%

CC(C)Oc1ncc(F)c(N)n1 [Compound 267]
pest or weed control at 25 ppm [1]: 0 to 25% | pest or weed control at 100 ppm [2]: 0 to 25% | pest or weed control at 25 ppm [3]: 0 to 25% | pest or weed control at 100 ppm [4]: 0 to 25%

COc1cccc(COc2ncc(F)c(OC)n2)c1 [Compound 269]
pest or weed control at 25 ppm [1]: 0 to 25% | pest or weed control at 100 ppm [2]: 0 to 25% | pest or weed control at 25 ppm [3]: 0 to 25% | pest or weed control at 100 ppm [4]: 0 to 25%

COCCOC(=O)Nc1nc(OCc2cccc(F)c2)ncc1F [Compound 273]
pest or weed control at 25 ppm [1]: 51 to 75% | pest or weed control at 100 ppm [2]: 76 to 100% | pest or weed control at 25 ppm [3]: 76 to 100% | pest or weed control at 100 ppm [4]: 76 to 100%

CN1CCC/C1=N\c1nc(OCc2ccc(F)cc2)ncc1F [Compound 274]
pest or weed control at 25 ppm [1]: 76 to 100% | pest or weed control at 100 ppm [2]: 76 to 100% | pest or weed control at 25 ppm [3]: 76 to 100% | pest or weed control at 100 ppm [4]: 76 to 100%

Nc1nc(OCc2cscn2)ncc1F [Compound 275]
pest or weed control at 25 ppm [1]: 76 to 100% | pest or weed control at 100 ppm [2]: 76 to 100% | pest or weed control at 25 ppm [3]: 76 to 100% | pest or weed control at 100 ppm [4]: 76 to 100%

CCOC(=O)Nc1nc(OCc2cccc(OC)c2)ncc1F [Compound 276]
pest or weed control at 25 ppm [1]: 76 to 100% | pest or weed control at 100 ppm [2]: 76 to 100% | pest or weed control at 25 ppm [3]: 76 to 100% | pest or weed control at 100 ppm [4]: 76 to 100%

CC[Si](CC)(CC)Nc1nc(OCCCOC)ncc1F [Compound 279]
pest or weed control at 25 ppm [1]: 51 to 75% | pest or weed control at 100 ppm [2]: 76 to 100% | pest or weed control at 25 ppm [3]: 76 to 100% | pest or weed control at 100 ppm [4]: 76 to 100%

COCCOC(=O)Nc1nc(OCc2ccc(F)cc2)ncc1F [Compound 280]
pest or weed control at 25 ppm [1]: 76 to 100% | pest or weed control at 100 ppm [2]: 76 to 100% | pest or weed control at 25 ppm [3]: 76 to 100% | pest or weed control at 100 ppm [4]: 76 to 100%

Fc1cnc(OCc2ccccc2)nc1NNc1ccccc1 [Compound 282]
pest or weed control at 25 ppm [1]: 0 to 25% | pest or weed control at 100 ppm [2]: 26 to 50% | pest or weed control at 25 ppm [3]: 26 to 50% | pest or weed control at 100 ppm [4]: 51 to 75%

O=[N+]([O-])c1ccccc1NNc1nc(OCc2ccc(Cl)c(Cl)c2)ncc1F [Compound 283]
pest or weed control at 25 ppm [1]: 51 to 75% | pest or weed control at 100 ppm [2]: 76 to 100% | pest or weed control at 25 ppm [3]: 0 to 25% | pest or weed control at 100 ppm [4]: 26 to 50%

Nc1nc(OCc2ccc(O)cc2)ncc1F [Compound 284]
pest or weed control at 25 ppm [1]: 0 to 25% | pest or weed control at 100 ppm [2]: 0 to 25% | pest or weed control at 25 ppm [3]: 0 to 25% | pest or weed control at 100 ppm [4]: 0 to 25%

C/C=C(C)/C=N/Nc1nc(OCc2cccc(OC)c2)ncc1F [Compound 285]
pest or weed control at 25 ppm [1]: 51 to 75% | pest or weed control at 100 ppm [2]: 76 to 100% | pest or weed control at 25 ppm [3]: 26 to 50% | pest or weed control at 100 ppm [4]: 26 to 50%

CCc1ccccc1COc1ncc(F)c(N)n1 [Compound 286]
pest or weed control at 25 ppm [1]: 76 to 100% | pest or weed control at 100 ppm [2]: 76 to 100% | pest or weed control at 25 ppm [3]: 51 to 75% | pest or weed control at 100 ppm [4]: 76 to 100%

CCCCCNC(=S)Nc1nc(OCc2ccc(C)cc2)ncc1F [Compound 287]
pest or weed control at 25 ppm [1]: 76 to 100% | pest or weed control at 100 ppm [2]: 76 to 100% | pest or weed control at 25 ppm [3]: 76 to 100% | pest or weed control at 100 ppm [4]: 76 to 100%

Nc1nc(OCc2ccc(F)cc2F)ncc1F [Compound 289]
pest or weed control at 25 ppm [1]: 76 to 100% | pest or weed control at 100 ppm [2]: 76 to 100% | pest or weed control at 25 ppm [3]: 76 to 100% | pest or weed control at 100 ppm [4]: 76 to 100%

O=C(Nc1ccccc1F)Nc1nc(OCc2ccccc2)ncc1F [Compound 291]
pest or weed control at 25 ppm [1]: 0 to 25% | pest or weed control at 100 ppm [2]: 0 to 25% | pest or weed control at 25 ppm [3]: 0 to 25% | pest or weed control at 100 ppm [4]: 26 to 50%

CN(/C=N/c1nc(OCc2ccc(F)cc2)ncc1F)Cc1ccccc1 [Compound 292]
pest or weed control at 25 ppm [1]: 76 to 100% | pest or weed control at 100 ppm [2]: 76 to 100% | pest or weed control at 25 ppm [3]: 76 to 100% | pest or weed control at 100 ppm [4]: 76 to 100%

O=C(NNc1nc(OCc2ccccc2)ncc1F)c1ccccc1 [Compound 293]
pest or weed control at 25 ppm [1]: 0 to 25% | pest or weed control at 100 ppm [2]: 0 to 25% | pest or weed control at 25 ppm [3]: 0 to 25% | pest or weed control at 100 ppm [4]: 0 to 25%

COc1cccc(COc2ncc(F)c(NNC3CCCCC3)n2)c1 [Compound 294]
pest or weed control at 25 ppm [1]: 0 to 25% | pest or weed control at 100 ppm [2]: 76 to 100% | pest or weed control at 25 ppm [3]: 0 to 25% | pest or weed control at 100 ppm [4]: 76 to 100%

CCOC(=O)COC(=O)Nc1nc(OCc2ccc(F)cc2)ncc1F [Compound 295]
pest or weed control at 25 ppm [1]: 76 to 100% | pest or weed control at 100 ppm [2]: 76 to 100% | pest or weed control at 25 ppm [3]: 76 to 100% | pest or weed control at 100 ppm [4]: 76 to 100%

Cc1cc(Oc2ncc(F)c(N)n2)cc(C)n1 [Compound 296]
pest or weed control at 25 ppm [1]: 0 to 25% | pest or weed control at 100 ppm [2]: 0 to 25% | pest or weed control at 25 ppm [3]: 0 to 25% | pest or weed control at 100 ppm [4]: 26 to 50%

O=C(Nc1nc(OCc2ccccc2)ncc1F)OCc1ccccc1 [Compound 298]
pest or weed control at 25 ppm [1]: 76 to 100% | pest or weed control at 100 ppm [2]: 76 to 100% | pest or weed control at 25 ppm [3]: 76 to 100% | pest or weed control at 100 ppm [4]: 76 to 100%

COc1ccccc1COc1ncc(F)c(N)n1 [Compound 300]
pest or weed control at 25 ppm [1]: 76 to 100% | pest or weed control at 100 ppm [2]: 76 to 100% | pest or weed control at 25 ppm [3]: 76 to 100% | pest or weed control at 100 ppm [4]: 76 to 100%

C/C(=N\Nc1nc(OCc2ccc(C)cc2)ncc1F)c1ccc(Cl)nc1 [Compound 301]
pest or weed control at 25 ppm [1]: 26 to 50% | pest or weed control at 100 ppm [2]: 26 to 50% | pest or weed control at 25 ppm [3]: 51 to 75% | pest or weed control at 100 ppm [4]: 76 to 100%

CN(C)/C=N/c1nc(OCc2cccc(N)c2)ncc1F [Compound 303]
pest or weed control at 25 ppm [1]: 26 to 50% | pest or weed control at 100 ppm [2]: 76 to 100% | pest or weed control at 25 ppm [3]: 51 to 75% | pest or weed control at 100 ppm [4]: 76 to 100%

COc1cccc(COc2ncc(F)c(NNc3ccccc3)n2)c1 [Compound 306]
pest or weed control at 25 ppm [1]: 0 to 25% | pest or weed control at 100 ppm [2]: 76 to 100% | pest or weed control at 25 ppm [3]: 26 to 50% | pest or weed control at 100 ppm [4]: 26 to 50%

Nc1nc(OCc2cn3ccccc3n2)ncc1F [Compound 307]
pest or weed control at 25 ppm [1]: 76 to 100% | pest or weed control at 100 ppm [2]: 76 to 100% | pest or weed control at 25 ppm [3]: 76 to 100% | pest or weed control at 100 ppm [4]: 76 to 100%

Nc1nc(OCc2ccnc(Cl)c2)ncc1F [Compound 308]
pest or weed control at 25 ppm [1]: 76 to 100% | pest or weed control at 100 ppm [2]: 76 to 100% | pest or weed control at 25 ppm [3]: 76 to 100% | pest or weed control at 100 ppm [4]: 76 to 100%
